Measurements: publication PMC3124361 (Journal of medicinal chemistry, 2011)
pIC50: −log10 of the molar value. In brackets after ≈: the same amount, converted by molar mass. Several values for one entry are separate records, joined by “and”; a condition that tells them apart may be missing. Equal entries are not always repeated.

Tests used:
human albumin = human albumin (Homo sapiens, UniProt P02768); experiment: Protein binding estimated on human albumin column; format: in vitro ADME; details: human albumin chromatographic method
Chain of human albumin (P02768 25-609): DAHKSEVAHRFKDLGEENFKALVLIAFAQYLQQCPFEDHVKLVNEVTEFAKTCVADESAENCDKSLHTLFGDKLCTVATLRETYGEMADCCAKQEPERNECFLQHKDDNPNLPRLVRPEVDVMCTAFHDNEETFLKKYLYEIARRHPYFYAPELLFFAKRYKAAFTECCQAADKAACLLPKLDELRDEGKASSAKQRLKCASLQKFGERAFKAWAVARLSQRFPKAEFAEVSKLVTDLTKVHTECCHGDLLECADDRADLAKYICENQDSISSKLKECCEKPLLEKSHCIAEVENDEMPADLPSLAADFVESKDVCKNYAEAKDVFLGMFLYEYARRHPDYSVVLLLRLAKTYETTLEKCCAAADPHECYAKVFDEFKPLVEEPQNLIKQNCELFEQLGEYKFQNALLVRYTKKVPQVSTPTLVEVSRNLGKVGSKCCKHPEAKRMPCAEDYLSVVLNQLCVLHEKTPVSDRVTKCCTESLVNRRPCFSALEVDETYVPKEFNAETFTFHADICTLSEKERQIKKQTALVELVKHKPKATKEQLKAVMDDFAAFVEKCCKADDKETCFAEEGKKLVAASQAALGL

[1] = In vitro metabolism in human liver microsomes; format: in vitro ADME; details: for Eh Human: predicted hepatic extraction ratio; for microsomal CLint at 1 μM: microsomes, pH 7.4
[2] = Non-equilibrium solubility by nephelometry, pH 6.5; format: physicochemical; details: for solubility: phosphate buffer
PfDHODH = target: T1, PfDHODH (Plasmodium falciparum, UniProt Q08210); experiment: PfDHODH DCIP dye-based enzyme assay; format: biochemical; details: for pIC50: IC50 PfDHODH
T1 sequence (Q08210 158-569 limits assumed): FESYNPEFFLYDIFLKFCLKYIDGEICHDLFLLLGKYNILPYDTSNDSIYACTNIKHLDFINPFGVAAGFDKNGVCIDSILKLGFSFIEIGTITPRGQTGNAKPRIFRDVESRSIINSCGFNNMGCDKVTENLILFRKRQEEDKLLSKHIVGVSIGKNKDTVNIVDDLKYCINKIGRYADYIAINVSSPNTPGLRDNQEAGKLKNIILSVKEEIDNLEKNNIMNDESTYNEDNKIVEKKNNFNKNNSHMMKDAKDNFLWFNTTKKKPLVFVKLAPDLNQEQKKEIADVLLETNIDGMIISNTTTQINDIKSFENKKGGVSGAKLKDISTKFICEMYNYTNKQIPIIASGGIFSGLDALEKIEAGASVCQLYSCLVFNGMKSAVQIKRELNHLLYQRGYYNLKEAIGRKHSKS

[3] = Mouse systemic exposure after single oral dose; format: in vivo; details: single oral dose 20 mg/kg, plasma
[4] = In vitro metabolism in mouse liver microsomes; format: in vitro ADME; details: for Eh Mouse: predicted hepatic extraction ratio; for microsomal CLint at 1 μM: microsomes, pH 7.4

SMILES	Human Plasma Binding (human albumin) [%]	Eh Human [1]	solubility [2] [µM]	pIC50 (PfDHODH)	other results
CCc1ccc(Nc2cc(C)nc3ncnn23)cc1 [Compound 7, N-(4-Ethylphenyl)-5-methyl-[1,2,4]triazolo[1,5-a]pyrimidin-7-amine]	88.0	0.77/ND	25 to 50 (≈ 6.33 to 12.7 µg/mL)		
CCCc1ccc(Nc2cc(C)nc3ncnn23)cc1 [Compound 8, N-(4-Propylphenyl)-5-methyl-[1,2,4]triazolo[1,5-a]pyrimidin-7-amine]	93.5	0.66/ND	187 to 374 (≈ 50 to 100 µg/mL)		aqueous solubility at pH 6.5 (in words) [2]: highly soluble
CCCCc1ccc(Nc2cc(C)nc3ncnn23)cc1 [Compound 9, N-(4-Butylphenyl)-5-methyl-[1,2,4]triazolo[1,5-a]pyrimidin-7-amine]	96.7	0.67/ND	11 to 22 (≈ 3.09 to 6.19 µg/mL)		aqueous solubility at pH 6.5 (in words) [2]: poorly soluble
CCCCCCCCc1ccc(Nc2cc(C)nc3ncnn23)cc1 [Compound 13, N-(4-Octylphenyl)-5-methyl-[1,2,4]triazolo[1,5-a]pyrimidin-7-amine]				< 4.30	
Cc1cc(Nc2ccc(C(C)C)cc2)n2ncnc2n1 [Compound 14, N-(4-Isopropylphenyl)-5-methyl-[1,2,4]triazolo[1,5-a]pyrimidin-7-amine]	91.3	0.64	47 to 94 (≈ 12.6 to 25.1 µg/mL)		Time above 1 μM [3]: <1 h; Eh Mouse [4]: 0.91
Cc1cc(Nc2ccc(C(C)(C)C)cc2)n2ncnc2n1 [Compound 15, N-(4-tert-Butylphenyl)-5-methyl-[1,2,4]triazolo[1,5-a]pyrimidin-7-amine]	93.2		11 to 22 (≈ 3.09 to 6.19 µg/mL)		microsomal CLint at 1 μM [1]: > 30 µL/min/mg; microsomal CLint at 1 μM [4]: > 30 µL/min/mg; aqueous solubility at pH 6.5 (in words) [2]: poorly soluble; pIC50 (PfDHODH; stated in text): > 7.00
Cc1cc(Nc2ccc(C3CC3)cc2)n2ncnc2n1 [Compound 16, N-(4-Cyclopropylphenyl)-5-methyl-[1,2,4]triazolo[1,5-a]pyrimidin-7-amine]	86.8	0.75			Eh Mouse [4]: 0.93; aqueous solubility at pH 6.5 (in words) [2]: highly soluble
C=Cc1ccc(Nc2cc(C)nc3ncnn23)cc1 [Compound 17, N-(4-Vinylphenyl)-5-methyl-[1,2,4]triazolo[1,5-a]pyrimidin-7-amine]	84.4	0.64	25 to 50 (≈ 6.28 to 12.6 µg/mL)		Eh Mouse [4]: 0.88
C#Cc1ccc(Nc2cc(C)nc3ncnn23)cc1 [Compound 18, N-(4-Ethynylphenyl)-5-methyl-[1,2,4]triazolo[1,5-a]pyrimidin-7-amine]	81.8	0.31	100 to 200 (≈ 24.9 to 49.9 µg/mL)		microsomal CLint at 1 μM [1]: < 10 µL/min/mg; microsomal CLint at 1 μM [4]: > 25 µL/min/mg; Eh Mouse [4]: 0.54
Cc1cc(Nc2ccc(SC(F)(F)F)cc2)n2ncnc2n1 [Compound 20, 5-Methyl-N-(4-(trifuoromethylthio)phenyl)-[1,2,4]triazolo[1,5-a]pyrimidin-7-amine]	96.1	< 0.2	5 to 10 (≈ 1.63 to 3.25 µg/mL)		microsomal CLint at 1 μM [1]: < 10 µL/min/mg; microsomal CLint at 1 μM [4]: > 25 µL/min/mg; Eh Mouse [4]: 0.84; aqueous solubility at pH 6.5 (in words) [2]: poorly soluble
Cc1cc(Nc2ccc(N(C)C)cc2)n2ncnc2n1 [Compound 23, N^1,N^1-Dimethyl-N^4-(5-methyl-[1,2,4]triazolo[1,5-a]pyrimidin-7-yl)benzene-1,4-diamine]		0.4	93 to 186 (≈ 25 to 49.9 µg/mL)		Eh Mouse [4]: 0.91; fold less potent / increase of PfDHODH IC50 over 14 (PfDHODH; comparator 14): 4 fold
Cc1cc(Nc2ccc(N3CCOCC3)cc2)n2ncnc2n1 [Compound 25, N-(4-Morpholinophenyl)-5-methyl-[1,2,4]triazolo[1,5-a]pyrimidin-7-amine]				< 4.00	
Cc1cc(Nc2ccc(NC(C)(C)C)cc2)n2ncnc2n1 [Compound 26, N^1-tert-Butyl-N^4(5-methyl-[1,2,4]triazolo[1,5-a]pyrimidin-7-yl)benzene-1,4-diamine]				< 4.30	
Cc1cc(Nc2ccc(C(C)(C)C)c(F)c2)n2ncnc2n1 [Compound 29, N-(4-tert-Butyl-3-fluorophenyl)-5-methyl-[1,2,4]triazolo[1,5-a]pyrimidin-7-amine]	96.4				Time above 1 μM [3]: <1 h; microsomal CLint at 1 μM [1]: > 30 µL/min/mg; microsomal CLint at 1 μM [4]: > 30 µL/min/mg; aqueous solubility at pH 6.5 (in words) [2]: poorly soluble; pIC50 (PfDHODH; stated in text): > 7.00 and ~7.52; fold decrease in PfDHODH IC50 vs 15 (PfDHODH; comparator 15): 2 fold
Cc1cc(Nc2ccc(Cl)c(F)c2)n2ncnc2n1 [Compound 30, N-(4-Chloro-3-fluorophenyl)-5-methyl-[1,2,4]triazolo[1,5-a]pyrimidin-7-amine]					fold decrease in PfDHODH IC50 over the 4-Cl alone (PfDHODH; comparator 4-Cl-Ph (DSM89)): 3 fold
Cc1cc(Nc2ccc3c(c2)CCCC3)n2ncnc2n1 [Compound 33, 5-methyl-N-(5,6,7,8-tetrahydronaphthalen-2yl)-[1,2,4]triazolo[1,5-a]pyrimidin-7-amine]	95.5		89 to 179 (≈ 24.9 to 50 µg/mL)	7.46	microsomal CLint at 1 μM [1]: > 30 µL/min/mg; microsomal CLint at 1 μM [4]: > 30 µL/min/mg; pIC50 (PfDHODH; stated in text): > 7.00 and ~7.52
Cc1cc(Nc2ccc3c(c2)CCC3)n2ncnc2n1 [Compound 34, N-(2,3-dihydro1H-inden-5-yl)-5-methyl-[1,2,4]triazolo[1,5-a]pyrimidin-7-amine]	92.5	0.81	47 to 94 (≈ 12.5 to 24.9 µg/mL)		Eh Mouse [4]: 0.94
Cc1cc(Nc2ccc3c(c2)OCO3)n2ncnc2n1 [Compound 35, N-(Benzo[d][1,3]dioxol-5yl)-5-methyl-[1,2,4]triazolo[1,5-a]pyrimidin-7-amine]		0.37/ND	186 to 372 (≈ 50.1 to 100 µg/mL)		aqueous solubility at pH 6.5 (in words) [2]: highly soluble

SMILES	Human Plasma Binding (human albumin) [%]	Eh Human [1]	solubility [2] [µM]	pIC50 (PfDHODH)	other results
Cc1cc(NC2CC2)n2ncnc2n1 [Compound 38, N-Cyclopropyl-5-methyl-[1,2,4]triazolo[1,5-a]pyrimidin-7-amine]				< 4.00	
Cc1cc(NC2CCC2)n2ncnc2n1 [Compound 39, N-Cyclobutyl-5-methyl-[1,2,4]triazolo[1,5-a]pyrimidin-7-amine]				< 4.00	
Cc1cc(NC2CCCC2)n2ncnc2n1 [Compound 40, N-Cyclopentyl-5-methyl-[1,2,4]triazolo[1,5-a]pyrimidin-7-amine]				< 4.00	
Cc1cc(NC2CCCCC2)n2ncnc2n1 [Compound 41, N-Cyclohexyl-5-methyl-[1,2,4]triazolo[1,5-a]pyrimidin-7-amine]				< 4.00	
Cc1cc(NC2CCCCCC2)n2ncnc2n1 [Compound 42, N-Cycloheptyl-5-methyl-[1,2,4]triazolo[1,5-a]pyrimidin-7-amine]				< 4.00	
Cc1cc(NC2CCCCCCC2)n2ncnc2n1 [Compound 43, N-Cyclooctyl-5-methyl-[1,2,4]triazolo[1,5-a]pyrimidin-7-amine]				< 4.00	
Cc1cc(NC2Cc3ccccc3C2)n2ncnc2n1 [Compound 45, N-(2,3-Dihydro-1H-inden-2-yl)-5-methyl-[1,2,4]triazolo[1,5-a]pyrimidin-7-amine]	76.1	< 0.2	188 to 376 (≈ 49.9 to 99.8 µg/mL)		Time above 1 μM [3]: <1 h; microsomal CLint at 1 μM [1]: < 10 µL/min/mg; microsomal CLint at 1 μM [4]: > 25 µL/min/mg; Eh Mouse [4]: 0.59; aqueous solubility at pH 6.5 (in words) [2]: highly soluble
Cc1cc(NC2CCc3ccccc3C2)n2ncnc2n1 (centres unmarked) [Compound 49, 5-Methyl-N-(1,2,3,4-tetrahydronaphthalen-2-yl)-[1,2,4]triazolo[1,5-a]pyrimidin-7-amine]		< 0.2			microsomal CLint at 1 μM [1]: < 10 µL/min/mg; microsomal CLint at 1 μM [4]: > 25 µL/min/mg; Eh Mouse [4]: 0.61; aqueous solubility at pH 6.5 (in words) [2]: highly soluble
Cc1cc(NOc2ccccc2)n2ncnc2n1 [Compound 52, N-(5-Methyl-[1,2,4]triazolo[1,5-a]pyrimidin-7-yl)-O-phenylhydroxylamine]				< 4.00	activity against PfDHODH (in words) (PfDHODH): inactive
Cc1cc(NCc2ccccc2)n2ncnc2n1 [Compound 53]				< 4.00	
Cc1cc(NCc2ccc(F)cc2)n2ncnc2n1 [Compound 54]				< 4.00	activity against PfDHODH (in words) (PfDHODH): inactive
Cc1cc(NCc2ccc(C(F)(F)F)cc2)n2ncnc2n1 [Compound 55]				< 4.00	activity against PfDHODH (in words) (PfDHODH): inactive
Cc1cc(NCCc2ccccc2)n2ncnc2n1 [Compound 56, 5-Methyl-N-phenethyl-[1,2,4]triazolo[1,5-a]pyrimidin-7-amine]					activity against PfDHODH (in words) (PfDHODH): mid-micromolar range activity
Cc1cc(NCCCc2ccccc2)n2ncnc2n1 [Compound 57]					activity against PfDHODH (in words) (PfDHODH): mid-micromolar range activity
CCc1cc(Nc2ccc(C(F)(F)F)cc2)n2ncnc2n1 [Compound 59, 5-Ethyl-N-(4-trifluoromethyl)phenyl-[1,2,4]triazolo[1,5-a]pyrimidin-7-amine]					fold reduction in PfDHODH inhibitory activity versus 2 (PfDHODH; comparator 2): 2 fold
FC(F)(F)c1ccc(Nc2cc(C(F)(F)F)nc3ncnn23)cc1 [Compound 60]					fold reduction in PfDHODH inhibitory activity versus 2 (PfDHODH; comparator 2): 4 fold
FC(F)(F)c1ccc(Nc2cc(Cl)nc3ncnn23)cc1 [Compound 61]					fold better activity (lower IC50) against PfDHODH than 2 (PfDHODH; comparator 2): 2 fold
CCCc1c(C)nc2ncnn2c1Nc1ccc(C)cc1 [Compound 64]				< 4.00	activity against PfDHODH (in words) (PfDHODH): complete loss in activity
